This test relates to tonic extensor seizure. Kind of test: maximal electroshock test (MES). In kind it is in vivo, mouse (albino male CRS-CD1). The note with it: mouse, PO, at 4 hr. How it is done:
The compounds of formula (I) are particularly useful as anticonvulsant agents in mammals including humans. The anticonvulsant activity of the subject compounds was determined using a standard "maximal electroshock test" (MES). In this test, activity is indicated by a block of the […] extensor seizure caused by application of an electric shock to mice via corneal electrodes, as described by Swinyard et al. in J. Pharmacol. Expt. Ther. 1952, 106, 319, and recorded as % block. A more recent description of current anticonvulsant drug screening is given by Swinyard in Epilepsia 1978, 19, 409. The anticonvulsant activity of the compounds of this invention tested according to the Swinyard 1952 method is shown in the following Table I.
In the test, albino male CRS-CD1 mice weighing between 18-25 g were used in all experiments (obtained from Charles River). They were allowed food and water ad libitum and were used only once. The electroshock apparatus and the corneal electrodes were purchased from Wahlquist Instrument Company, Salt Lake City, Utah.
Maximal electroshock seizures were induced by the delivery of a 60 Hertz (Hz) current of 50 milliamps (mA) intensity to the mouse through corneal electrodes for 0.2 seconds as originally described by Swinyard et al. (1952). This stimulus intensity is approximately 4 to 6 times the current producing 100% tonic extensor convulsions. During the validation of the MES test, the duration of the various seizure components following maximal electroshock were measured as follows: hindleg tonic flexion was measured from the time of the application of the stimulus to the time of onset of hindleg tonic extension (i.e. when the hindlegs deviate by greater than an angle of 90° from the torso), hindleg tonic extensor was measured from the time of extensor thrust to the onset of generalized clonus, and terminal clonus was measured from the beginning to the end of bilateral rhythmic clonic jerking. Mortality was also recorded. The duration of each seizure component agreed well with the values previously reported by Tedeschi et al. in J. Pharmacol. Expt. Ther. 1955, 116, 107. The corneal electrodes were concave so that saline could be applied to the electrodes to reduce mortality. If this procedure is followed, mortality should always be less than 40% in control mice. Thus, at an electroshock stimulus of 60 Hz, 50 mA and 0.2 seconds duration, the order of convulsive components and the percentage of control animals displaying the behaviors should be as follows: tonic flexion (100%), tonic extension (100%) and clonus (100%) with less than 40% mortality.
For testing compounds, the abolition of the tonic extensor component was the endpoint. Animals were dosed orally (PO) with either vehicle or test drug and at a specified time were given a maximal electric shock through corneal electrodes blotted with saline (as described above). A minimum of 10 animals were used per group and the percentage of animals in the group without tonic hindlimb extension recorded. Determination of ED50 values (that dose of drug inhibiting 50% of the tonic extensor seizures) is shown below in Table I.

Structures are written as SMILES.

Usually ED50 stands for the dose at which the effect has come halfway, by size or by number of responders. For `CC1(C)O[C@H]2[C@@H]3OS(=O)(=O)O[C@@H]3CO[C@@]2(COS(N)(=O)=O)O1` [Example 1, 2,3-O-(1-Methylethylidene)-4,5-O-sulfonyl-β-D-fructopyranose Sulfamate], the 50% effect level (ED50) was put at a dose of 6.3 mg/kg.

Source of the values: patent US5242942A, “Anticonvulsant fructopyranose cyclic sulfites and sulfates” (McNeilab, Inc., priority 1992, dated 1993).
